Data: patent publication US20020058701A1 (priority 2000, published 2002)

How the values were obtained:
[1] = system: C57BL/ks diabetic (db/db) mice; experiment: Glucose-lowering (plasma glucose) in diabetic db/db mice; type: in vivo; conditions: Tables 4 and 6, fifty-four hours after initial dosing, value = size of decline
Procedure: (§1) Genetically altered obese diabetic mice (designated C57BL/ks diabetic or db/db) were purchased from the Jackson Laboratory (Bar Harbor, Me., USA), and served as experimental animals. Male animals between the ages of 8-9 weeks were employed in the studies described here. Animals were housed (4 mice/cage) under standard laboratory conditions at 22° C. and 50% relative humidity, and were maintained on a diet of Purina rodent chow and water ad libitum. Prior to treatment, blood was collected from the tail vein of each animal. Mice that had plasma glucose levels between 350 and 600 mg/dL were used. Each treatment group consisted of eight mice that were distributed so that the mean glucose levels were equivalent in each group at the start of the study. Db/db mice received, orally by gavage: the experimental compound administered at 62.5, 125, or 250 mg/kg/day (unless otherwise noted), or metformin administered at […] for 1-3 days. Test compounds were delivered in a liquid vehicle containing 0.25% (w/v) carboxymethyl-cellulose, 1% (v/v) Tween […] (polyoxyethylene sorbitan monosterate), and up to 10% (v/v) dimethyl sulfoxide (DMSO) in a volume of 10 ml/kg. Blood was sampled from the tail vein at three hours, six, eight, twenty-four, and thirty hours post-administration (the first administration) of the particular compound in non-fasted conditions. Experiments 3-5 also sampled blood at fifty-four hours post-administration (the first administration) of the particular compound in non-fasted conditions. Blood samples were analyzed for plasma glucose levels. Individual body weights and mean food consumption (each cage) were also measured daily.
The isolated test substances were prepared as described previously (vide supra). Metformin (1,1-dimethylbiguanide), carboxymethyl cellulose and Tween 60 were purchased from Sigma Chemical Co. (St. Louis, Mo., USA; catalog #'s D-5035, C-4888, and p-1629, respectively). Plasma glucose levels were determined colorimetrically using glucose oxidase (Sigma Chemical Co.; Sigma catalog #315). Significant differences between groups (comparing compound-treated to vehicle-treated) were evaluated using analysis of variance and Fisher's post-hoc test.
Vehicle, metformin (250 mg/kg) or enriched extract (1000 mg/kg) were given to db/db mice at 0(initial), 8, 24, 32, 48, 56, 72, 80, and 96 hours post initial dose.
Plasma glucose levels were measured at baseline, 3 (day 1), 51 hours (Day 3), and 99 hours (Day 5).

[2] = Body weights and food consumption in diabetic db/db mice; type: in vivo; conditions: 125 mg/kg, Table 11
Procedure: as §1

Compound	mean glucose levels declined from the baseline value ([1]; 125 mg/kg) [mg/dL]	mean glucose levels declined from the baseline values ([1]; 250 mg/kg) [mg/dL]	Food Intake (g/mouse) 0-48 h ([2]; 0-48 h, vehicle 6.1) [g/mouse]	Body weight (g/mouse) (mean) 0 h ([2]; 0 h, vehicle 39.4 ± 0.4)	Body weight (g/mouse) (mean) 48 hr ([2]; 48 hr, vehicle 40.1 ± 0.4)
3-hydroxy-4-(3-methyl-2-butenyl)-5-methoxystilbene-2-carboxylic acid [Compound C]	60.4	122.0	–	–	–
COc1cc(O)cc(CCc2ccccc2)c1CCC(C)C [Compound F]	–	–	5.8	39.3 ± 0.8	39.8 ± 0.8
